In patent US9493446B2, “Orexin receptor antagonists which are [ortho bi-(hetero-)aryl]-[2-(meta bi-(hetero-)aryl)-pyrrolidin-1-yl]-methanone derivatives” (Actelion Pharmaceuticals Ltd, priority 2012, dated 2016):
Read-outs that look alike come from different tables or passages of the source.

Tests used:
[1] = molecular target: orexin-1 (Homo sapiens (Human), UniProt O43613); assay: Intracellular calcium measurement (FLIPR), CHO cells expressing human orexin-1 receptor, 3 nM orexin-A; assay type: cell-based; details: read-out: IC50 OX1
In short: (§1)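 Antagonist is added 120 min before agonist. Fluo-4 AM-loaded CHO cells carry human orexin-1 or orexin-2 receptor, and calcium is read by FLIPR.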

[2] = molecular target: human orexin-2 receptor (Homo sapiens (Human), UniProt O43614); assay: Intracellular calcium measurement (FLIPR), CHO cells expressing human orexin-2 receptor, 3 nM orexin-A; assay type: cell-based; details: read-out: IC50 OX2
In short: as §1

[3] = CHO cells expressing human orexin-1 receptor, FLIPR, 3 nM orexin-A, geometric mean if determined several times
[4] = CHO cells expressing human orexin-2 receptor, FLIPR, 3 nM orexin-A, geometric mean if determined several times

Chain of orexin-1 (O43613 whole entry): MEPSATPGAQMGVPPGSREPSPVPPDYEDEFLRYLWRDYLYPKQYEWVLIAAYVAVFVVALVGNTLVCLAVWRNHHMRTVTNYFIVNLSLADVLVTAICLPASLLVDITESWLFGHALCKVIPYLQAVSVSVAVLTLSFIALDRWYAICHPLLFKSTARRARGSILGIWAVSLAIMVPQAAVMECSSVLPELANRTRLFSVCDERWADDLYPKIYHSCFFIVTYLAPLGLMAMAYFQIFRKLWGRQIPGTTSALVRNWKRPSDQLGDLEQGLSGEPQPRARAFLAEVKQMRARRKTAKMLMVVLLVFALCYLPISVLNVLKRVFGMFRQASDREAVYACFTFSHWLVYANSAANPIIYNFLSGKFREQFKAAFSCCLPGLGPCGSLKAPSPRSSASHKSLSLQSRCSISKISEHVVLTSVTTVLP
Chain of human orexin-2 receptor (O43614 whole entry): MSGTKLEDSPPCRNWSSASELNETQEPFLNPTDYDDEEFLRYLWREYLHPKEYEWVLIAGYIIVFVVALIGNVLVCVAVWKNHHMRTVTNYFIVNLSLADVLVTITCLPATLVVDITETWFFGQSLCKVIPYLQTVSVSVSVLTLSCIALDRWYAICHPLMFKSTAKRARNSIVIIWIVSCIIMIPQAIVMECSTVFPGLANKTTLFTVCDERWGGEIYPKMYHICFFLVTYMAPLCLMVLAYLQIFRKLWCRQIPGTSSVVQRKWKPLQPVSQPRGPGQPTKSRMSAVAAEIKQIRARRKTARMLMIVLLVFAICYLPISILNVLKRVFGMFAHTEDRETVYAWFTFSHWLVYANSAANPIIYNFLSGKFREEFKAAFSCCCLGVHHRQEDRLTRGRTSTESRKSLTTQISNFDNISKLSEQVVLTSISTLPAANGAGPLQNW

| Molecule | IC50 [1, 3] | IC50 [2, 4] | IC50 [2] | IC50 [1] |
| --- | --- | --- | --- | --- |
| Cc1c(F)cccc1-c1noc([C@@H]2CCCN2C(=O)c2ccc(Cl)cc2-n2nccn2)n1 [compound 294] | 155 nM | 17 nM |  |  |
| COc1c(Cl)cccc1-c1nc([C@@H]2CCCN2C(=O)c2ccc(Cl)cc2-n2nccn2)no1 [compound 349] | 27 nM | 3 nM |  |  |
| Cc1ccc(-n2nccn2)c(C(=O)N2CCC[C@H]2c2nc(-c3cccnc3OC3CCCC3)no2)c1 [compound 49, {(S)-2-[3-(2-Cyclopentyloxy-pyridin-3-yl)-[1,2,4]oxadiazol-5-yl]-pyrrolidin-1-yl}-(5-methyl-2-[1,2,3]triazol-2-yl-phenyl)-methanone] | 89 nM | 233 nM |  |  |
| COc1c(F)cccc1-c1noc([C@@H]2CCCN2C(=O)c2cc(C)c(C)cc2-n2nccn2)n1 [compound 196, (4,5-Dimethyl-2-[1,2,3]triazol-2-yl-phenyl)-{(S)-2-[3-(3-fluoro-2-methoxy-phenyl)-[1,2,4]oxadiazol-5-yl]-pyrrolidin-1-yl}-methanone] | 10 nM | 2 nM |  |  |
| Thiophen-2-yl-[(S)-2-(3-o-tolyl-[1,2,4]oxadiazol-5-yl)-pyrrolidin-1-yl]-methanone [Reference compound 3, reference compound] | 182 nM |  | 34 nM |  |
| COc1cc(C(=O)N2CCC[C@H]2c2cc(-c3cccc(Cl)c3C)on2)c(-n2nccn2)cc1C [compound 433] | 19 nM | 1 nM |  |  |
| COc1cc(C(=O)N2CCC[C@H]2c2noc(-c3cc(C)ccc3C)n2)c(-n2nccn2)cc1C [compound 405, {(S)-2-[5-(2,5-Dimethyl-phenyl)-[1,2,4]oxadiazol-3-yl]-pyrrolidin-1-yl}-(5-methoxy-4-methyl-2-[1,2,3]triazol-2-yl-phenyl)-methanone] | 33 nM | 1 nM |  |  |
| Cc1ccc(-n2cccn2)c(C(=O)N2CCC[C@H]2c2nc(-c3cccc(Cl)c3C)no2)n1 [compound 109] |  |  | 199 nM | 976 nM |
| Cc1cc(C(=O)N2CCC[C@H]2c2nc(-c3ccccc3Cl)no2)c(-n2nccn2)cc1C [compound 238] | 104 nM | 16 nM |  |  |
| CCOc1ccccc1-c1noc([C@@H]2CCCN2C(=O)c2cc(Cl)ccc2-n2nccn2)n1 [compound 255] | 36 nM | 8 nM |  |  |
| Cc1ccc(-n2nccn2)c(C(=O)N2CCC[C@H]2c2nc(-c3cccc(C)c3Cl)no2)c1 [compound 27] | 125 nM |  | 8 nM |  |
| COc1cc(C(=O)N2CCC[C@H]2c2cc(-c3ccccc3)on2)c(-n2nccn2)cc1C [compound 432, (5-Methoxy-4-methyl-2-[1,2,3]triazol-2-yl-phenyl)-[(S)-2-(5-phenyl-isoxazol-3-yl)-pyrrolidin-1-yl]-methanone] | 322 nM | 16 nM |  |  |
| Cc1ccc(C(=O)N2CCC[C@@]2(C)c2nnc(-c3cccc(Cl)c3C)[nH]2)c(-n2nccn2)c1 [compound 551] | 43 nM | 24 nM |  |  |
| Cc1ccc(-n2nccn2)c(C(=O)N2CCC[C@H]2c2cc(-c3cccc(Cl)c3C)no2)c1 [compound 424] | 8 nM | 4 nM |  |  |
| Cc1nc(C(=O)N2CCC[C@H]2c2nc(-c3cccc(Cl)c3C)no2)c(-c2cccc(F)c2)s1 [compound 123] | 133 nM | 111 nM |  |  |
| COc1ccc(-n2nccn2)c(C(=O)N2CCC[C@H]2c2nc(-c3ccccc3OC(F)(F)F)no2)c1 [compound 151, (5-Methoxy-2-[1,2,3]triazol-2-yl-phenyl)-{(S)-2-[3-(2-trifluoromethoxy-phenyl)-[1,2,4]oxadiazol-5-yl]-pyrrolidin-1-yl}-methanone] | 27 nM | 27 nM |  |  |
| COc1ccccc1-c1noc([C@@H]2CCCN2C(=O)c2cc(F)ccc2-n2nccn2)n1 [compound 233, (5-Fluoro-2-[1,2,3]triazol-2-yl-phenyl)-{(S)-2-[3-(2-methoxy-phenyl)-[1,2,4]oxadiazol-5-yl]-pyrrolidin-1-yl}-methanone] | 1410 nM | 341 nM |  |  |
| Cc1ccc(-n2nccn2)c(C(=O)N2CCC[C@H]2c2nc(-c3c[nH]c4ccccc34)no2)c1 [compound 15, {(S)-2-[3-(1H-Indol-3-yl)-[1,2,4]oxadiazol-5-yl]-pyrrolidin-1-yl}-(5-methyl-2-[1,2,3]triazol-2-yl-phenyl)-methanone] | 21 nM | 8 nM |  |  |
| COc1cc(C(=O)N2CCC[C@H]2c2nc(-c3cccc(F)c3C)no2)c(-n2nccn2)cc1Cl [compound 295] | 78 nM | 3 nM |  |  |
| CCc1ccccc1-c1nc([C@@H]2CCCN2C(=O)c2cc(OC)c(Cl)cc2-n2nccn2)no1 [compound 407] | 15 nM | 3 nM |  |  |
| Cc1ccc(C(=O)N2CCC[C@H]2c2cnc(-c3cccc(Cl)c3C)[nH]2)c(-n2nccn2)c1 [compound 522] |  |  | 367 nM | 2110 nM |
| COc1cc(C(=O)N2CCC[C@H]2c2nc(-c3ccccc3C(F)(F)F)no2)c(-n2nccn2)cc1C [compound 182, (5-Methoxy-4-methyl-2-[1,2,3]triazol-2-yl-phenyl)-{(S)-2-[3-(2-trifluoromethyl-phenyl)-[1,2,4]oxadiazol-5-yl]-pyrrolidin-1-yl}-methanone] | 276 nM | 29 nM |  |  |
| Cc1cc(C(=O)N2CCC[C@H]2c2nnc(-c3cccc(Cl)c3C)o2)c(-n2nccn2)cc1C [compound 447] | 30 nM | 5 nM |  |  |
| Cc1ccc(-n2nccn2)c(C(=O)N2CCC[C@H]2c2nnc(-c3cccc(Cl)c3C)o2)c1 [compound 440] | 141 nM | 21 nM |  |  |
| CCOc1c(F)cccc1-c1nc([C@@H]2CCCN2C(=O)c2cc(Cl)ccc2-n2nccn2)no1 [compound 327] | 38 nM |  | 4 nM |  |
| Cc1cc(C(=O)N2CCC[C@H]2c2nc(-c3cccc(F)c3C)no2)c(-n2nccn2)cc1C [compound 247, (4,5-Dimethyl-2-[1,2,3]triazol-2-yl-phenyl)-{(S)-2-[3-(3-fluoro-2-methyl-phenyl)-[1,2,4]oxadiazol-5-yl]-pyrrolidin-1-yl}-methanone] | 17 nM | 3 nM |  |  |
| Cc1ccc(-n2nccn2)c(C(=O)N2CCC[C@H]2c2nc(-c3c[nH]c4ncccc34)no2)c1 [compound 50, (5-Methyl-2-[1,2,3]triazol-2-yl-phenyl)-{(S)-2-[3-(1H-pyrrolo[2,3-b]pyridin-3-yl)-[1,2,4]oxadiazol-5-yl]-pyrrolidin-1-yl}-methanone] | 131 nM | 75 nM |  |  |
| COc1cc(-c2noc([C@@H]3CCCN3C(=O)c3cc(C)ccc3-n3nccn3)n2)ccn1 [compound 32, {(S)-2-[3-(2-Methoxy-pyridin-4-yl)-[1,2,4]oxadiazol-5-yl]-pyrrolidin-1-yl}-(5-methyl-2-[1,2,3]triazol-2-yl-phenyl)-methanone] | 2290 nM | 955 nM |  |  |
| Cc1ccc(-c2ccccc2)c(C(=O)N2CCC[C@@]2(C)c2nnc(-c3cccc(Cl)c3C)[nH]2)c1 [compound 556] | 870 nM | 857 nM |  |  |
| COc1ccc(C)c(-c2nc([C@@H]3CCCN3C(=O)c3cc(C)c(C)cc3-n3nccn3)no2)c1 [compound 383, (4,5-Dimethyl-2-[1,2,3]triazol-2-yl-phenyl)-{(S)-2-[5-(5-methoxy-2-methyl-phenyl)-[1,2,4]oxadiazol-3-yl]-pyrrolidin-1-yl}-methanone] | 30 nM | 4 nM |  |  |
